Values quoted from earlier work as cited in US10583101B2 (EMCURE PHARMACEUTICALS LIMITED, priority 2016, dated 2020).

For O=NN(CCCl)C(=O)NCCCl [Carmustine, 1,3-bis (2-chloroethyl)-1-nitrosourea], the “solubility in alcohol and lipids” value (alcohol and lipids) is listed as “highly soluble in alcohol and lipids” and the solubility in water (water) is listed as “poorly soluble in water”.
